According to patent US8173682B2, “Substituted pyridones as inhibitors of poly(ADP-ribose) polymerase (PARP)” (Aventis Pharmaceuticals Inc., priority 2004, dated 2012):
Counter-ions that a name gives are not always drawn.

Molecular target: T1, recombinant human PARP (PARP1) (Homo sapiens, UniProt P09874)
T1 construct: Full length human PARP (PARP1) is assembled from PCR fragments; His6 tag with TEV site, from the pFastBac-HTb vector (own knowledge of the vector); made in house; host or cells: insect cells, baculovirus (Bac-to-Bac, Gibco-BRL)
Test: PARP enzyme assay, Method A (radioactivity or 'ELISA' enzyme assay with partially purified enzyme)
Format: biochemical
Details: recombinant human PARP preparation, radioactive or ELISA enzyme assay
Source text: Two different methods are employed in determining the activity of the compounds of this invention in inhibiting the activity of PARP enzyme, designated as Method A and Method B respectively as set forth below.
Method A: Cloning and Expression, and Partial Purification of Recombinant Human PARP:
Full length human PARP (PARP1) is assembled from PCR fragments of a clone from a human brain cDNA library and two Incyte clones. The PARP gene (3046 bp) is sub-cloned into pFastBac-HTb vector to give PARP-pFastBac-HTb and the sequence of this clone is verified. PARP-pFastBac-HTb is expressed to obtain protein using the Bac-to-Bac expression protocol from Gibco-BRL. The recombinant virus generated is used to scale up the material for purification.
Cell pellets from cell broth of cells expressing PARP are treated with a cocktail of protease inhibitors and lysed by 4 freeze-thaw cycles. The material is suspended in 10 mM HEPES/0.1M NaCl/pH 7.2, stirred, and then centrifuged. A 40%-70% ammonium sulfate cut of protein pellet is obtained from the supernatant. The pellet is solubilized in 10 mM HEPES/pH 7.2 and centrifuged. The supernatant buffer is exchanged to 10 mM HEPES/pH 7.2/0.1M NaCl/25% glycerol by dialysis or with a desalting column. The enzyme preparation is stored at −20° C. until use.
The compounds of this invention are then tested with this enzyme preparation using either the radioactive enzyme assay or by the “ELISA” enzyme assay as set forth below.
Radioactivity Enzyme Assay:
Incorporation of radioactivity from labeled NAD into acid-precipitated protein is measured. The reaction mixture (volume 100 μL or 50 μL, in a test-tube or 96-well plate) contained 100 μg/mL calf thymus DNA (sonicated), 100 μg/mL histones, 100 mM Tris (pH 8.0), 1.0 mM DTT, 10 mM MgCl2, NAD (200 μM, 0.65 microcurie/mL), and varying amounts of enzyme. The reaction was incubated for 10 min at 37° C. or at room temperature for 60 min. The reaction was stopped and protein precipitated by addition of ice-cold trichloroacetic acid (TCA; 10% or 20% aqueous w/v). After brief storage in ice or at 4° C. for 2 hrs, the reaction mixture is filtered under vacuum through a glass fiber filter (2.5 cm disc, or 96-well filter plate). After washing with TCA and ethanol, the filter is dried and counted for tritium CPM after addition of scintillation fluid.
Incorporation of biotin-NAD into histone coated on plate is measured. A 96-well protein-binding EIA plate is coated with histone and blocked with bovine serum albumin. The reaction mixture (50 μL) contained DNA, buffer, enzyme, (test compound), and 250 μM of NAD and 5 μL of biotin-NAD (Trevigen). After reaction at room temperature the wells are washed and treated with Extravidin (Sigma). After incubation and washing color is developed with the peroxidase substrate TMB (Sigma). The TMB reaction is quenched with 2M sulfuric acid and the absorbance at 450 nm is read.

T1 sequence (P09874 whole entry, the tested form may be a part): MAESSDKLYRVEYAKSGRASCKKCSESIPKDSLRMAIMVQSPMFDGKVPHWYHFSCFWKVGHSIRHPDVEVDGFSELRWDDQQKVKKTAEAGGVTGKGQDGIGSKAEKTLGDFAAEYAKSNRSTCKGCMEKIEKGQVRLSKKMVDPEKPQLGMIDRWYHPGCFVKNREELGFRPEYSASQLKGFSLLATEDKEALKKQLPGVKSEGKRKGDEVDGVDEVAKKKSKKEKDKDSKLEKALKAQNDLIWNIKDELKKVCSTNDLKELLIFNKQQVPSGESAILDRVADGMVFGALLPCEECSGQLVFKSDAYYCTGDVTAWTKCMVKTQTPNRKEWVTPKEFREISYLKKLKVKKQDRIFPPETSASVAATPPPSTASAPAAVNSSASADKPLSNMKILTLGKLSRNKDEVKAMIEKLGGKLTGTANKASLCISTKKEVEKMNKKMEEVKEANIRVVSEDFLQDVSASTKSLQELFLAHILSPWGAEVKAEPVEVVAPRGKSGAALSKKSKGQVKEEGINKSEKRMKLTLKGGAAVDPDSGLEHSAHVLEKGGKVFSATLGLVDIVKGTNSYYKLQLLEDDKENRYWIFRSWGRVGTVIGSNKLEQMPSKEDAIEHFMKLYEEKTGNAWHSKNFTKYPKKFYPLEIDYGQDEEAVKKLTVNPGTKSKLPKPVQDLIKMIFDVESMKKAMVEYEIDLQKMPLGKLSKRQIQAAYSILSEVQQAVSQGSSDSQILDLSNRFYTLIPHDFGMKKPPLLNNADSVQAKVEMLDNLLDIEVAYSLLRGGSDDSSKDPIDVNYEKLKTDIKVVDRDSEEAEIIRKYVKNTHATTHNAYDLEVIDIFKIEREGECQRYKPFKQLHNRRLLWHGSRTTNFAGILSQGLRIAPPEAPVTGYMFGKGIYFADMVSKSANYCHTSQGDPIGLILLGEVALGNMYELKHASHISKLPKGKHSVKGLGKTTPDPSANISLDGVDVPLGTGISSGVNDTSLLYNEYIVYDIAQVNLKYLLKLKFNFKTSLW

Row | IC50 [µM] | Compound
1 | 0.36 | CCc1cc(-c2ccc(S(=O)(=O)NCCc3cccnc3)o2)c(C)[nH]c1=O [Example 48, 5-(5-Ethyl-2-methyl-6-oxo-1,6-dihydropyridin-3-yl)furan-2-sulfonic acid (2-pyridin-3-yl)ethylamide hydrochloride]
2 | 0.18 | CCc1cc(-c2ccc(S(=O)(=O)NCCCN3CCCC3)o2)c(C)[nH]c1=O [Example 49, 5-(5-Ethyl-2-methyl-6-oxo-1,6-dihydropyridin-3-yl)furan-2-sulfonic Acid (3-pyrrolidin-1-yl)propylamide hydrochloride]
3 | 0.22 | CCc1cc(-c2ccc(S(=O)(=O)N3CCC(N4CCCCC4)CC3)o2)c(C)[nH]c1=O [Example 51, 3-Ethyl-6-methyl-5-[5-(4-piperidin-1-yl)piperidine-1-sulfonylfuran-2-yl]-1H-pyridin-2-one hydrochloride]
4 | 0.16 | CCc1cc(-c2ccc(S(=O)(=O)NCCN3CCCC3)o2)c(C)[nH]c1=O [Example 53, 5-(5-Ethyl-2-methyl-6-oxo-1,6-dihydropyridin-3-yl)furan-2-sulfonic acid (2-pyrrolidin-1-yl)ethylamide hydrochloride]
5 | 5.7 | CCc1cc(-c2ccc(S(=O)(=O)N3CCN(CCN4CCCCC4)CC3)s2)c(C)[nH]c1=O [Example 57, 3-Ethyl-6-methyl-5-{5-[4-(2-piperidin-1-yl)ethylpiperizine-1-sulfonyl]thiophen-2-yl}-1H-pyridin-2-one dihydrochloride]
6 | 1.7 | CCc1cc(-c2ccc(S(=O)(=O)N3CCN(CCc4ccccn4)CC3)s2)c(C)[nH]c1=O [Example 60, 3-Ethyl-6-methyl-5-{5-[4-(2-pyridin-2-yl)ethylpiperazine-1-sulfonyl]thiophen-2-yl}-1H-pyridin-2-one dihydrochloride]
7 | 0.43 | CCc1cc(-c2ccc(S(=O)(=O)N3CCN(CCN4CCCC4)CC3)s2)c(C)[nH]c1=O [Example 61, 3-Ethyl-6-methyl-5-{5-[4-(2-pyrrolidin-1-yl)ethylpiperazine-1-sulfonyl]thiophen-2-yl}-1H-pyridin-2-one dihydrochloride]
8 | 0.6 | CCc1cc(-c2ccc(S(=O)(=O)N3CCN(CCCN4CCCC4)CC3)s2)c(C)[nH]c1=O [Example 62, 3-Ethyl-6-methyl-5-{5-[4-(3-pyrrolidin-1-yl)propylpiperazine-1-sulfonyl]thiophen-2-yl}-1H-pyridin-2-one dihydrochloride]
9 | 0.26 | CCc1cc(-c2ccc(S(=O)(=O)NCCN3CCCCC3)s2)c(C)[nH]c1=O [Example 69, 5-[5-Ethyl-2-methyl-6-oxo-1,6-dihydropyridin-3-yl]thiophene-2-sulfonic acid (2-piperidin-1-yl)ethylamide hydrochloride]
10 | 0.42 | CCc1cc(-c2ccc(S(=O)(=O)NCc3cncc(C)n3)s2)c(C)[nH]c1=O [Example 73, 5-[5-Ethyl-2-methyl-6-oxo-1,6-dihydropyridin-3-yl]thiophene-2-sulfonic acid (6-methylpyrazin-2-yl)methylamide hydrochloride]
11 | 0.36 | CCc1cc(-c2ccc(S(=O)(=O)NC3CCN(CC4CC4)CC3)s2)c(C)[nH]c1=O [Example 74, 5-[5-Ethyl-2-methyl-6-oxo-1,6-dihydropyridin-3-yl]thiophene-2-sulfonic acid (1-cyclopropylmethylpiperidin-4-yl)amide hydrochloride]
12 | 0.3 | CCc1cc(-c2ccc(S(=O)(=O)NC3CCN(CC4CCCCC4)CC3)s2)c(C)[nH]c1=O [Example 75, 5-(5-Ethyl-2-methyl-6-oxo-1,6-dihydropyridin-3-yl)thiophene-2-sulfonic acid (1-cyclohexylmethylpiperidin-4-yl)amide hydrochloride]
13 | 0.28 | CCc1cc(-c2ccc(S(=O)(=O)N(C)C3CCN(C)CC3)s2)c(C)[nH]c1=O [Example 77, 5-[5-Ethyl-2-methyl-6-oxo-1,6-dihydropyridin-3-yl]thiophene-2-sulfonic acid methyl-(1-methylpiperidin-4-yl]amide hydrochloride]
14 | 0.45 | CCc1cc(-c2ccc(S(=O)(=O)N3CCC(n4ccnc4)CC3)s2)c(C)[nH]c1=O [Example 79, 3-Ethyl-5-[5-(4-imidazol-1-yl)piperidine-1-sulfonyl)thiophen-2-yl]-6-methyl-1H-pyridin-2-one hydrochloride]

Continued, molecule first:

Row | Compound | IC50 [µM]
15 | CCc1cc(-c2ccc(S(=O)(=O)NCCN3CCOCC3)o2)c(C)[nH]c1=O [Example 47, 5-(5-Ethyl-2-methyl-6-oxo-1,6-dihydropyridin-3-yl)furan-2-sulfonic acid (2-morpholin-4-yl)ethylamide hydrochloride] | 0.89
16 | CCc1cc(-c2ccc(S(=O)(=O)NCCN3CCCCC3)o2)c(C)[nH]c1=O [Example 50, 5-(5-Ethyl-2-methyl-6-oxo-1,6-dihydropyridin-3-yl)furan-2-sulfonic acid (2-piperidin-1-yl)ethylamide hydrochloride] | 0.27
17 | CCc1cc(-c2ccc(S(=O)(=O)N3CCCN(C)CC3)o2)c(C)[nH]c1=O [Example 52, 3-Ethyl-6-methyl-5-[5-(4-methyl-1,4-diazepane-1-sulfonyl)furan-2-yl]-1H-pyridin-2-one hydrochloride] | 0.38
18 | CCc1cc(-c2ccc(S(=O)(=O)NCc3cccnc3)o2)c(C)[nH]c1=O [Example 55, 5-(5-Ethyl-2-methyl-6-oxo-1,6-dihydropyridin-3-yl)furan-2-sulfonic acid (pyridin-3-yl)methylamide hydrochloride] | 0.22
19 | CCc1cc(-c2ccc(S(=O)(=O)N3CCN(Cc4ccncc4)CC3)s2)c(C)[nH]c1=O [Example 58, 3-Ethyl-6-methyl-5-[5-(4-pyridin-4-yl)methylpiperizine-1-sulfonyl]thiophen-2-yl}1H-pyridin-2-one dihydrochloride] | 2.3
20 | CCc1cc(-c2ccc(S(=O)(=O)N3CCN(CCN(C)C)CC3)s2)c(C)[nH]c1=O [Example 64, 5-{5-[4-(2-Dimethylaminoethyl)piperazine-1-sulfonyl]thiophen-2-yl}-3-ethyl-6-methyl-1H-pyridn-2-one dihydrochloride] | 1.5
21 | CCc1cc(-c2ccc(S(=O)(=O)NCCCN3CCN(C)CC3)s2)c(C)[nH]c1=O [Example 65, 5-(5-Ethyl-2-methyl-6-oxo-1,6-dihydropyridin-3-yl)thiophene-2-sulfonic acid 3-(4-methylpiperazin-1-yl)propylamide dihydrochloride] | 0.67
22 | CCc1cc(-c2ccc(S(=O)(=O)N3CCC(N4CCCC4)CC3)s2)c(C)[nH]c1=O [Example 66, 3-Ethyl-6-methyl-5-{5-[(4-pyrrolidin-1-yl)piperidine-1-sulfonyl]thiophen-2-yl}-1H-pyridin-2-one hydrochloride] | 0.67
23 | CCc1cc(-c2ccc(S(=O)(=O)NCCCN3CCCC3=O)s2)c(C)[nH]c1=O [Example 68, 5-[5-Ethyl-2-methyl-6-oxo-1,6-dihydropyridin-3-yl]thiophene-2-sulfonic acid [3-(2-oxopyrrolidin-1-yl)propyl]amide] | 1.9
24 | CCc1cc(-c2ccc(S(=O)(=O)NCC(c3cccnc3)N3CCOCC3)s2)c(C)[nH]c1=O (centres unmarked) [Example 72, 5-[5-Ethyl-2-methyl-6-oxo-1,6-dihydropyridin-3-yl]thiophene-2-sulfonic acid 2-(morpholin-4-yl)-2-(pyridin-3-yl)ethylamide dihydrochloride] | 1.2
25 | CCc1cc(-c2ccc(S(=O)(=O)NC3CCN(Cc4ccc(Cl)cc4)CC3)s2)c(C)[nH]c1=O [Example 76, 5-[5-Ethyl-2-methyl-6-oxo-1,6-dihydropyridin-3-yl]-thiophene-2-sulfonic acid 1-(4-chlorobenzyl)piperidin-4-yl]amide hydrochloride] | 0.23
26 | CCc1cc(-c2ccc(S(=O)(=O)NCc3ccc(N(C)C)nc3)s2)c(C)[nH]c1=O [Example 78, 5-(5-Ethyl-2-methyl-6-oxo-1,6-dihydropyridin-3-yl)thiophene-2-sulfonic acid [(6-dimethylaminopyridin-3-yl)methyl]amide hydrochloride] | 0.2
